Experimental data as given in patent US9896441B2 (Lycera Corporation, priority 2014, dated 2018).
Values joined by “and” are separate entries in the source; they are usually repeats but may differ in a detail not shown here. Equal entries are not always repeated.

The compounds below were run against T1, RORγ-LBD (Homo sapiens, UniProt P51449) (assay: RORγ-Ligand Binding Domain (LBD) TR-FRET Assay). Conditions: RORγ-LBD TR-FRET.
T1 construct: made in house; host or cells: SF9 cells (baculovirus); used as diluted lysate
T1 sequence (P51449 269-508 limits assumed): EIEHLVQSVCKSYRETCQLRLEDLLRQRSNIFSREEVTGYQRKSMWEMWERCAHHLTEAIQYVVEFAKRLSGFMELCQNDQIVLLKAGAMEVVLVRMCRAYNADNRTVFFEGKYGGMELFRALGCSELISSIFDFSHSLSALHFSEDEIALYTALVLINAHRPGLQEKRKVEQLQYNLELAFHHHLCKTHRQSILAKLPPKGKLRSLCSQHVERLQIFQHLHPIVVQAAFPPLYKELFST
Type: biochemical
Description: Assay procedures and results are described below.
HIS-tagged RORγ-LBD protein was expressed in SF9 cells using a baculovirus expression system. The lysate was diluted in assay buffer (50 mM Tris pH 7.0, 50 mM KCl, 1 mM EDTA, 0.1 mM DTT, 0.01% BSA) to obtain RORγ-LBD final concentration of ˜3 nM in a 384-well assay plate (need to titrate for each batch of protein).
A stock of biotinylated-LXXLL peptide from coactivator SRC1 (Biotin-[…]) was prepared in assay buffer and added to each well (200 nM final concentration). […] RORγ antagonist ursolic acid was also included at a final concentration of 2 μM. Compounds were diluted in DMSO and further diluted in assay buffer with a final DMSO concentration at 1%.
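For TR-FRET Assay Max Response in this document: 665/615 nm signal ratio set to 100 without ursolic acid or test compound.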

Row | Structure (SMILES) | EC50
1 | COc1cc(S(=O)(=O)N2CCCc3cc(OCc4c(F)cccc4Cl)ccc32)ccc1F [Example 25O, 6-((2-chloro-6-fluorobenzyl)oxy)-1-((4-fluoro-3-methoxyphenyl)sulfonyl)-1,2,3,4-tetrahydroquinoline] | < 500 nM
2 | COC(=O)CC[C@H]1CN(S(=O)(=O)c2cccc(C(F)(F)F)c2)c2cc(/C=C/c3cccn4ccnc34)ccc2O1 [Example 89DE, methyl (S,E)-3-(6-(2-(imidazo[1,2-a]pyridin-8-yl)vinyl)-4-((3-(trifluoromethyl)-phenyl)sulfonyl)-3,4-dihydro-2H-benzo[b][1,4]oxazin-2-yl)propanoate] | < 500 nM and 500 to 5000 nM
3 | Cc1noc(C)c1/C=C/c1ccc2c(c1)N(S(=O)(=O)c1cccc(C(F)(F)F)c1)C[C@H](CCC(=O)O)O2 [Example 89BR, (S,E)-3-(6-(2-(3,5-dimethylisoxazol-4-yl)vinyl)-4-((3-(trifluoromethyl)phenyl)sulfonyl)-3,4-dihydro-2H-benzo[b][1,4]-oxazin-2-yl)propanoic acid] | > 10000 nM
4 | O=C(O)CC[C@H]1CN(S(=O)(=O)c2cc(C(F)(F)F)cnc2OCCO)c2cc(/C=C3\CCCOC3)ccc2O1 [Example 95X, (S,E)-3-(6-((dihydro-2H-pyran-3(4H)-ylidene)methyl)-4-((2-(2-hydroxyethoxy)-5-(trifluoromethyl)pyridin-3-yl)sulfonyl)-3,4-dihydro-2H-benzo[b][1,4]oxazin-2-yl)propanoic acid] | 500 to 5000 nM
5 | CCn1cc(S(=O)(=O)N2C[C@H](CNC(C)=O)Oc3ccc(NCc4c(F)cccc4Cl)cc32)c(OCCO)n1 [Example 28E] | < 500 nM
6 | O=C(O)CC[C@H]1CN(S(=O)(=O)c2cccc(C(F)(F)F)c2)c2cc(/C=C/c3cccc4cn[nH]c34)ccc2O1 [Example 89BL, (S,E)-3-(6-(2-(1H-indazol-7-yl)vinyl)-4-((3-(trifluoromethyl)phenyl)sulfonyl)-3,4-dihydro-2H-benzo[b][1,4]oxazin-2-yl)propanoic acid] | > 10000 nM
7 | Cn1ccnc1/C=C/c1ccc2c(c1)N(S(=O)(=O)c1cccc(C(F)(F)F)c1)C[C@H](CCC(=O)O)O2 [Example 89BU, (S,E)-3-(6-(2-(1-methyl-1H-imidazol-2-yl)vinyl)-4-((3-(trifluoromethyl)phenyl)sulfonyl)-3,4-dihydro-2H-benzo[b][1,4]-oxazin-2-yl)propanoic acid] | 5000 to 10000 nM
8 | COc1cc(S(=O)(=O)N2c3cc(OCc4c(F)cccc4Cl)ccc3C[C@@H](C(=O)O)[C@H]2C)ccc1F (racemic) [Example 21, (2R,3R)-7-((2-Chloro-6-fluorobenzyl)oxy)-1-((4-fluoro-3-methoxyphenyl)sulfonyl)-2-methyl-1,2,3,4-tetrahydroquinoline-3-carboxylic acid] | < 500 nM
9 | O=S(=O)(c1cccc(C(F)(F)F)c1)N1CCCc2cc(O[C@@H]3CCc4ccccc43)ccc21 [Example 25U, (R)-6-((2,3-dihydro-1H-inden-1-yl)oxy)-1-((3-(trifluoromethyl)-phenyl)sulfonyl)-1,2,3,4-tetrahydroquinoline] | > 10000 nM
10 | CC(=O)c1cccc(/C=C/c2ccc3c(c2)N(S(=O)(=O)c2cccc(C(F)(F)F)c2)C[C@H](CCC(=O)O)O3)n1 [Example 89BX, (S,E)-3-(6-(2-(6-acetylpyridin-2-yl)vinyl)-4-((3-(trifluoromethyl)-phenyl)sulfonyl)-3,4-dihydro-2H-benzo[b][1,4]oxazin-2-yl)propanoic acid] | > 10000 nM
11 | O=S(=O)(c1cccc(C(F)(F)F)c1)N1CCCc2cc(O[C@H]3CCc4ccccc43)ccc21 [Example 25V, (S)-6-((2,3-dihydro-1H-inden-1-yl)oxy)-1-((3-(trifluoromethyl)-phenyl)sulfonyl)-1,2,3,4-tetrahydroquinoline] | 500 to 5000 nM
12 | COc1cc(S(=O)(=O)N2CCCc3ccc(O[C@@H]4c5ccccc5C[C@@H]4C)cc32)ccc1F (relative stereo) [Example 25D, 1-((4-fluoro-3-methoxyphenyl)sulfonyl)-7-(((cis)-2-methyl-2,3-dihydro-1H-inden-1-yl)oxy)-1,2,3,4-tetrahydroquinoline] | < 500 nM
13 | O=C(O)CC[C@H]1CN(S(=O)(=O)c2cccc(C(F)(F)F)c2)c2cc(/C=C/c3c[nH]nc3C(F)(F)F)ccc2O1 [Example 89BT, (S,E)-3-(6-(2-(3-(trifluoromethyl)-1H-pyrazol-4-yl)vinyl)-4-((3-(trifluoromethyl)phenyl)-sulfonyl)-3,4-dihydro-2H-benzo[b][1,4]oxazin-2-yl)propanoic acid] | > 10000 nM
14 | O=S(=O)(c1cccc(C(F)(F)F)c1)N1CCCc2cc(OCCc3ccccc3)ccc21 [Example 25N, 6-phenethoxy-1-((3-(trifluoromethyl)phenyl)sulfonyl)-1,2,3,4-tetrahydroquinoline] | < 500 nM
15 | CS(=O)(=O)c1cccc(/C=C/c2ccc3c(c2)N(S(=O)(=O)c2cccc(C(F)(F)F)c2)C[C@H](CCC(=O)O)O3)c1 [Example 89BV, (S,E)-3-(6-(3-(methylsulfonyl)-styryl)-4((3-(trifluoromethyl)-phenyl)sulfonyl)-3,4-dihydro-2H-benzo[b][1,4]oxazin-2-yl)propanoic acid] | > 10000 nM
16 | O=S(=O)(c1cccc(C(F)(F)F)c1)N1CCCc2cc(Br)c(OCc3c(F)cccc3Cl)cc21 [Example 28F] | < 500 nM
17 | CCOc1ncc(C(F)(F)F)cc1S(=O)(=O)N1C[C@H](CCC(=O)OC)Oc2ccc(C=C3CCCCC3)cc21 [Example 95A, methyl (S)-3-(6-(cyclohexylidenemethyl)-4-((2-ethoxy-5-(trifluoromethyl)pyridin-3-yl)sulofnyl)-3,4-dihydro-2H-benzo[b][1,4]oxazin-2-yl)propanoate] | 500 to 5000 nM

Same assay, conditions: RORγ-LBD TR-FRET assay

Row | Structure (SMILES) | EC50 [nM]
18 | C/C(=C\c1ccc2c(c1)C[C@@H](C(=O)O)[C@@H](C)N2S(=O)(=O)c1cccc(C(F)(F)F)c1)c1c(F)cccc1Cl [Example 149, (2R,3R)-6-((E)-2-(2-Chloro-6-fluorophenyl)prop-1-en-1-yl)-2-methyl-1-((3-(trifluoromethyl)phenyl)sulfonyl)-1,2,3,4-tetrahydroquinoline-3-carboxylic acid] | > 10000
19 | COC(=O)C(C)(C)C[C@@H]1Cc2ccc(/C=C(\C)c3c(F)cccc3Cl)cc2N(S(=O)(=O)c2ccc(F)c(OC)c2)C1 [Example 154B, methyl (S,E)-3-(7-(2-(2-chloro-6-fluorophenyl)prop-1-en-1-yl)-1-((4-fluoro-3-methoxyphenyl)sulfonyl)-1,2,3,4-tetrahydroquinolin-3-yl)-2,2-dimethylpropanoate] | < 500
20 | COC(=O)N[C@@H]1Cc2ccc(/C=C(\C)c3c(F)cccc3Cl)cc2N(S(=O)(=O)c2cccc(C(F)(F)F)c2)[C@@H]1C [Example 143, Methyl ((2R,3R)-7-((E)-2-(2-chloro-6-fluorophenyl)prop-1-en-1-yl)-2-methyl-1-((3-(trifluoromethyl)phenyl)sulfonyl)-1,2,3,4-tetrahydroquinolin-3-yl)carbamate] | < 500
21 | C[C@@H]1[C@H](NC(=O)Nc2ccccn2)Cc2ccc(/C=C/c3c(F)cccc3C(F)(F)F)cc2N1S(=O)(=O)c1cccc(C(F)(F)F)c1 [Example 116M, 1-((2R,3R)-7-((E)-2-fluoro-6-(trifluoromethyl)styryl)-2-methyl-1-((3-(trifluoro-methyl)phenyl)sulfonyl)-1,2,3,4-tetrahydroquinolin-3-yl)-3-(pyridin-2-yl)urea] | 500 to 5000

Same assay, conditions: RORγ-LBD TR-FRET assay, maximum response

Row | Structure (SMILES) | TR-FRET Assay Max Response
22 | COC(=O)C(C)(C)C[C@@H]1Cc2ccc(/C=C(\C)c3c(F)cccc3Cl)cc2N(S(=O)(=O)c2ccc(F)c(OC)c2)C1 [Example 154B, methyl (S,E)-3-(7-(2-(2-chloro-6-fluorophenyl)prop-1-en-1-yl)-1-((4-fluoro-3-methoxyphenyl)sulfonyl)-1,2,3,4-tetrahydroquinolin-3-yl)-2,2-dimethylpropanoate] | ** (a value in the range of greater than 90 to 150)
23 | COC(=O)N[C@@H]1Cc2ccc(/C=C(\C)c3c(F)cccc3Cl)cc2N(S(=O)(=O)c2cccc(C(F)(F)F)c2)[C@@H]1C [Example 143, Methyl ((2R,3R)-7-((E)-2-(2-chloro-6-fluorophenyl)prop-1-en-1-yl)-2-methyl-1-((3-(trifluoromethyl)phenyl)sulfonyl)-1,2,3,4-tetrahydroquinolin-3-yl)carbamate] | ** (a value in the range of greater than 90 to 150)
24 | C[C@@H]1[C@H](NC(=O)Nc2ccccn2)Cc2ccc(/C=C/c3c(F)cccc3C(F)(F)F)cc2N1S(=O)(=O)c1cccc(C(F)(F)F)c1 [Example 116M, 1-((2R,3R)-7-((E)-2-fluoro-6-(trifluoromethyl)styryl)-2-methyl-1-((3-(trifluoro-methyl)phenyl)sulfonyl)-1,2,3,4-tetrahydroquinolin-3-yl)-3-(pyridin-2-yl)urea] | *** (a value in the range of greater than 150 to 200)

Same assay, conditions: with 2 μM ursolic acid (RORγ antagonist); highest test concentration 10 μM

Row | Structure (SMILES) | EC50 [nM]
25 | O=C(O)C[C@H]1CN(S(=O)(=O)c2cccc(C(F)(F)F)c2)c2cc(NCc3c(F)cccc3Cl)ccc2O1 | < 500
26 | O=C(O)C1Cc2ccc(OCc3ccccc3F)cc2N(S(=O)(=O)c2cccc(C(F)(F)F)c2)C1 (centres unmarked) | < 500
27 | CCn1cc(S(=O)(=O)N2CC(C(=O)O)Oc3ccc(OCc4c(F)cccc4Cl)cc32)c(Cl)n1 (centres unmarked) | < 500
28 | O=S(=O)(c1cccc(C(F)(F)F)c1)N1CC(CO)Cc2ccc(OCc3c(F)cccc3Cl)cc21 (centres unmarked) | < 500
29 | O=C(O)C1Cc2ccc(OCc3c(Cl)cccc3Cl)cc2N(S(=O)(=O)c2cccc(C(F)(F)F)c2)C1 (centres unmarked) | < 500
30 | CC(=O)NC[C@H]1CN(S(=O)(=O)c2cccc(C(F)(F)F)c2)c2cc(NCc3c(F)cccc3Cl)ccc2O1 | < 500
31 | Cc1ccc(COc2ccc3c(c2)N(S(=O)(=O)c2cccc(C(F)(F)F)c2)CC(C(=O)O)C3)cc1F (centres unmarked) | > 10000
32 | COC(=O)CCC[C@H]1CN(S(=O)(=O)c2cccc(C(F)(F)F)c2)c2cc(/C=C(\C)c3c(F)cccc3Cl)ccc2O1 [Example 195H, methyl (S,E)-4-(6-(2-(2-chloro-6-fluorophenyl)prop-1-en-1-yl)-4-((3-(trifluoromethyl)phenyl)-sulfonyl)-3,4-dihydro-2H-benzo[b][1,4]oxazin-2-yl)butanoate] | < 500
33 | CC(C)(C)c1ccc(COc2ccc3c(c2)N(S(=O)(=O)c2cccc(C(F)(F)F)c2)CC(C(=O)O)C3)cc1 (centres unmarked) | > 10000
34 | O=C(O)C1Cc2ccc(OCc3c(F)cccc3C(F)(F)F)cc2N(S(=O)(=O)c2cccc(C(F)(F)F)c2)C1 (centres unmarked) | < 500
35 | COC(=O)C[C@H]1CN(S(=O)(=O)c2cccc(C(F)(F)F)c2)c2cc(NCc3c(F)cccc3Cl)ccc2O1 | < 500
